Assay results taken from EPA's ToxValDB 9.5.
“And” between values parts separate entries of the source, which are not always exact repeats. Identical values can stand only once. Counter-ions that a name gives are not always drawn.

Key:
Rattus norvegicus [1] = conditions: for LD50 / LC50: acute
Mus musculus [2] = conditions: acute; oral
Oryctolagus sp. [3] = tested on: Oryctolagus sp.
Cricetulus sp. [4] = conditions: duration: 5 days, oral, gavage, Hamster
Canidae [5] = conditions: oral, diet, M/F, Dog Other
Canidae [6] = conditions: chronic; duration: 2 years; oral; diet; Dog Other; Small intestine: Increased weight + Stomach: Increased weight
Canidae [7] = conditions: subchronic
Homo sapiens [8] = conditions: clinical, oral
Rattus norvegicus [9] = conditions: developmental; oral; gavage; Embryotoxic effects
Rattus norvegicus [10] = experiment: LC100; higher = less toxic; conditions: acute; inhalation
Rattus norvegicus [11] = conditions: subchronic, oral, gavage, M/F
Rattus norvegicus [12] = conditions: subchronic, oral, M/F
Rattus norvegicus [13] = conditions: subchronic; duration: 13 weeks; oral; gavage; Liver: Hepatotoxicity
Cricetulus sp. [14] = conditions: subchronic; duration: 13 weeks; inhalation; intermittent; Hamster; Nasal cavity: Olfactory degeneration
Gallus sp. [15] = conditions: subchronic; duration: 90 days; oral; F; ataxia, delayed neurotoxicity and weight loss
Gallus sp. [16] = conditions: subchronic; duration: 3 months; oral; capsule; Nervous system: Ataxia + Nervous system: Delayed neurotoxicity + Whole body: Decreased weight
Oryctolagus sp. [17] = experiment: LD0; higher = less toxic; conditions: acute; dermal; New Zealand
Rattus norvegicus [18] = conditions: M/F
Mouse, Rat = conditions: subchronic; duration: 90 days; inhalation; intermittent; Adrenal: Lesions + Blood: Hematological effects + Kidney: Lesions + Liver: Lesions
Cavia porcellus = conditions: acute, Guinea Pig
Mus musculus [19] = conditions: subchronic; oral; M/F; kidney effects (renal tubular pathology, reduced kidney weight)
Mus musculus [20] = conditions: subchronic; duration: 13 weeks; oral; gavage; M/F; CD1; Urinary
Homo sapiens [21] = conditions: clinical; oral; M; Restoration normal sexual desire, erection, ejaculation, and general well-being
Rattus norvegicus [22] = conditions: injection, subcutaneous
Dog, Rat = conditions: subchronic; duration: 13 weeks; oral; diet; Kidney: Effects + Liver: Effects
Homo sapiens [23] = conditions: clinical; oral; Hematologic
Monkey = conditions: chronic; duration: 5 years; inhalation; M/F; Rhesus; respiratory
Anatidae = conditions: oral
Homo sapiens [24] = conditions: clinical; oral; Blood: Increased prothrombin time
[25] = chronic, duration: 2 years, increased absolute and relative weight of stomach and small intestine
[26] = subchronic, duration: 90 days, inhibition of brain cholinesterase
[27] = M, plasma cholinesterase inhibition
[28] = subchronic, duration: 90 days, inhalation, Sprague-Dawley
[29] = short-term, duration: 28 days, dermal, occlusive, New Zealand
[30] = subchronic, duration: 13 weeks, Male reproductive toxicity and other effects (including decreased body weight gain), increased liver and kidney weights
[31] = duration: 90 days, diet, increased liver and kidney weight

Which LD50 (Rattus norvegicus [1]; oral) does the source give for `COC(=O)CCSCCC(=O)OC` [Dimethyl 3,3'-thiodipropionate] here?
Its LD50 is > 2500 mg/kg.

And the NOAEL (Rattus norvegicus [1]; reproduction developmental, duration: 13 weeks, oral, gavage, Sprague-Dawley)?
The NOAEL was 350 mg/kg-day.

And the NOAEL (Rattus norvegicus [1]; reproduction developmental, duration: 10 days, oral, gavage, F, Wistar)?
The NOAEL was 1600 mg/kg-day.

What about the NOAEL (Rattus norvegicus [1]; subchronic, duration: 13 weeks, oral, gavage, Sprague-Dawley) of the same compound?
The NOAEL was 350 mg/kg-day.

What about the LD50 (Mus musculus [2]) of the same compound?
The LD50 was > 2000 mg/kg.

What about the NOAEL (Oryctolagus sp. [3]; developmental, duration: 13 days, oral, gavage, Dutch-belted) of the same compound?
Its NOAEL is 1000 mg/kg-day.

What about the NOAEL (Cricetulus sp. [4]; developmental) of the same compound?
The NOAEL was 1600 mg/kg-day.

And the NOAEL (Cricetulus sp. [4]; reproduction developmental, F)?
The NOAEL was 1600 mg/kg-day.

Which LEL (Canidae [5]; [25]) does the source give for `O=C(O)[C@@H]1[C@H](C(=O)O)[C@H]2CC[C@@H]1O2` [Endothal] here?
The LEL was 6 mg/kg-day.

What about the NOEL (Canidae [5]; [25]) of the same compound?
The NOEL was 2 mg/kg-day.

What about the NOEL (Canidae [6]) of the same compound?
Its NOEL is 2 mg/kg-day.

With `CCOP(=S)(OCC)SCSP(=S)(OCC)OCC` [Ethion] as the compound, how does the NOAEL (Canidae [7]; duration: 90 days, oral, M/F, Beagle, neurological) read?
Its NOAEL is 0.06 mg/kg-day.

And the NOAEL (Canidae [7]; duration: 90 days, oral, diet, M/F, Beagle, neurological)?
The NOAEL was 0.06 mg/kg-day.

And the LEL (Canidae [5]; [26])?
Its LEL is 0.71 mg/kg-day.

What about the NOEL (Canidae [5]; [26]) of the same compound?
Its NOEL is 0.06 mg/kg-day.

What about the LEL (Homo sapiens [8]; [27]) of the same compound?
Its LEL is 0.075 mg/kg-day.

And the NOEL (Homo sapiens [8]; [27])?
The NOEL was 0.05 mg/kg-day.

What about the NOAEL (Rattus norvegicus [9]) of the same compound?
Its NOAEL is 0.2 mg/kg-day.

What does the source list for `CCOS(=O)(=O)OCC` [Ethyl sulfate (Et2SO4)]?
LC100 (Rattus norvegicus [10]): 3150 mg/m3; LC50 (Rattus norvegicus [1]; inhalation): ≥ 1580 mg/m3 and ≤ 3150 mg/m3; LD50 (Rattus norvegicus [1]; injection, subcutaneous): 350 mg/kg; LD50 (Rattus norvegicus [1]; oral): 880 mg/kg; LD50 (Oryctolagus sp. [3]; acute, dermal): 706 mg/kg

What does the source list for `O=Cc1ccco1` [Furfural]?
NOEL (Rattus norvegicus [11]; duration: 13 weeks, Fischer 344, Deaths + Absolute Organ Weight: Kidney increase, Liver increase + Relative Organ Weight: Kidney increase, Liver increase + Histopathology: …): < 11 mg/kg-day; LOAEL (Rattus norvegicus [12]; hepatocellular vacuolization): 11 mg/kg-day; LOAEL (Rattus norvegicus [13]): 7.9 mg/kg-day; NOAEL (Cricetulus sp. [14]): 78.6 mg/m3

Which results are given for `CCCCSP(SCCCC)SCCCC` [Merphos]?
LD50 (Rattus norvegicus [1]; oral, gavage, Crl): 2480 mg/kg; LOAEL (Gallus sp. [15]): 0.5 mg/kg-day; NOEL (Gallus sp. [15]): 0.1 mg/kg-day; NOEL (Gallus sp. [16]): 0.1 mg/kg-day

Which LD0 (Oryctolagus sp. [17]) does the source give for `CSSC` [Methyl disulfide] here?
Its LD0 is ≥ 2000 mg/kg.

What about the LC50 (Rattus norvegicus [1]; inhalation, Sprague-Dawley) of the same compound?
The LC50 was 3100 mg/m3.

And the LD50 (Rattus norvegicus [1]; oral, gavage, Sprague-Dawley)?
Its LD50 is ≥ 290 mg/kg and ≤ 500 mg/kg.

What about the LD50 (Rattus norvegicus [1]; oral, gavage, Wistar) of the same compound?
The LD50 was 190 mg/kg.

What about the NOAEL (Rattus norvegicus [1]; developmental, duration: 10 days, inhalation, Crl:CD(SD) BR) of the same compound?
Its NOAEL is 57.8 mg/m3.

What about the NOAEL (Rattus norvegicus [1]; reproduction developmental, duration: 10 days, inhalation, F, Crl:CD(SD) BR) of the same compound?
Its NOAEL is < 38.5 mg/m3.

What about the LOAEL (Rattus norvegicus [1]; [28]) of the same compound?
Its LOAEL is 193 mg/m3.

What about the NOAEL (Rattus norvegicus [1]; [28]) of the same compound?
The NOAEL was 38.5 mg/m3.

What about the LOAEL (Oryctolagus sp. [3]; [29]) of the same compound?
The LOAEL was 106 mg/kg-day.

And the NOAEL (Oryctolagus sp. [3]; [29])?
The NOAEL was 10.6 mg/kg-day.

`O=[N+]([O-])c1ccccc1` [Nitrobenzene] was tested. Which LOAEL (Rattus norvegicus [18]; subchronic, duration: 90 days, inhalation, F344 / Sprague-Dawley, hematological) did it give?
Its LOAEL is 25.2 mg/m3.

And the NOEL (Rattus norvegicus [11]; Fischer 344, Deaths + Body Weight Changes: decrease + Food Consumption: decrease + Hematology: RBC decrease, WBC increase, , Hgb decrease, , Hct decrease…)?
The NOEL was < 5 mg/kg-day.

And the NOEL (Rattus norvegicus [11]; Sprague-Dawley, Deaths + Clinical Observation: Piloerection, salivation, emacation Anemia, torticollis, rotating movement, abnormal gait + Body Weight …)?
The NOEL was < 20 mg/kg-day.

What about the LOAEL (Mouse, Rat) of the same compound?
The LOAEL was 25 mg/m3.

Which LD50 (Cavia porcellus; dermal) does the source give for `CCCCCCCC/C=C\CCCCCCCC(=O)O` [Oleic acid] here?
Its LD50 is > 3000 mg/kg.

Which LOAEL (Mus musculus [19]) does the source give for `c1cc2ccc3cccc4ccc(c1)c2c34` [Pyrene] here?
The LOAEL was 125 mg/kg-day.

What about the NOAEL (Mus musculus [19]) of the same compound?
The NOAEL was 75 mg/kg-day.

What about the NOAEL (Mus musculus [20]) of the same compound?
Its NOAEL is 75 mg/kg-day.

Which results are given for `C[C@]12CC[C@H]3[C@@H](CCC4=CC(=O)CC[C@@]43C)[C@@H]1CC[C@@H]2O` [Testosterone]?
NOEL (Homo sapiens [21]): 1.7 mg/kg-day; NOEL (Rattus norvegicus [22]; Hershberger, duration: 7 days, Sprague-Dawley, active + Androgenic + androgenic): 0.1 mg/kg-day; LEL (Rattus norvegicus [22]; uterotrophic, duration: 3 days, Active): 0.2 mg/day

`O=C1OC(=O)C2CC=CCC12` (configuration not stated) [Tetrahydrophthalic anhydride] was tested. Which LD50 (Mus musculus [2]) did it give?
Its LD50 is 3300 mg/kg.

What about the LD50 (Cavia porcellus; oral) of the same compound?
The LD50 was 3500 mg/kg.

With `Cc1cc(Cl)ccc1OCCCC(=O)O` [Thitrol] as the compound, how does the LEL (Canidae [5]; [30]) read?
Its LEL is 40 mg/kg-day.

What about the NOEL (Canidae [5]; [30]) of the same compound?
The NOEL was 12 mg/kg-day.

What about the LEL (Rattus norvegicus [12]; [31]) of the same compound?
The LEL was 40 mg/kg-day.

And the NOEL (Rattus norvegicus [12]; [31])?
Its NOEL is 12 mg/kg-day.

And the NOEL (Dog, Rat)?
The NOEL was 12 mg/kg-day.

Which LOAEL (Homo sapiens [23]) does the source give for `O=[N+]([O-])OCC(CO[N+](=O)[O-])O[N+](=O)[O-]` [Trinitroglycerin] here?
The LOAEL was 0.036 mg/kg-day.

Which results are given for `[U]` [Uranium]?
LOAEL (Monkey): 5.1 mg/m3; LOAEL (Canidae [7]; duration: 5 weeks, inhalation, unknown, not reported, renal): 0.15 mg/m3; NOAEL (Canidae [7]; duration: 5 weeks, inhalation, unknown, unspecified, renal): 1.1 mg/m3; LOAEL (Rattus norvegicus [18]; chronic, duration: 91 days, oral, drinking water, Sprague-Dawley, renal): 0.06 mg/kg-day; NOAEL (Anatidae): 16 mg/kg-day

How did the LOAEL (Homo sapiens [8]; M/F, increased prothrombin time) turn out when `CC(=O)CC(c1ccccc1)c1c(O)c2ccccc2oc1=O` (configuration not stated) [Warfarin] was run?
The LOAEL was 0.029 mg/kg-day.

And the LOAEL (Homo sapiens [24])?
The LOAEL was 2 mg/day.
